According to ChEMBL document CHEMBL1155521, “Synthesis and antibacterial activity of novel 4''-O-arylalkylcarbamoyl and 4''-O-((arylalkylamino)-4-oxo-butyl)carbamoyl clarithromycin derivatives” (2010):
Values after ≈ are worked out from the molar mass of the structure shown.

Legend:
Format in all cases: functional
[1] = system: Streptococcus pneumoniae; assay: Antibacterial activity against erythromycin-susceptible Streptococcus pneumoniae ATCC 49619 by broth microdilution method
[2] = system: Streptococcus pneumoniae; assay: Antibacterial activity against erythromycin-resistant Streptococcus pneumoniae B1 expressing erm gene by broth microdilution method
[3] = system: Streptococcus pneumoniae; assay: Antibacterial activity against erythromycin-resistant Streptococcus pneumoniae A22072 expressing mef gene by broth microdilution method
[4] = system: Streptococcus pneumoniae; assay: Antibacterial activity against erythromycin-resistant Streptococcus pneumoniae AB1-1 expressing erm and mef gene by broth microdilution method

SMILES	MIC [1]	MIC [2]	MIC [3]	MIC [4]
CC[C@H]1OC(=O)[C@H](C)[C@@H](O[C@H]2C[C@@](C)(OC)[C@@H](OC(=O)NCCCC(=O)NCc3ccc(OC)cc3)[C@H](C)O2)[C@H](C)[C@@H](O[C@@H]2O[C@H](C)C[C@H](N(C)C)[C@H]2O)[C@](C)(OC)C[C@@H](C)C(=O)[C@H](C)[C@@H](O)[C@]1(C)O	0.03 µg/mL (≈ 0.0301 µM)	0.06 µg/mL (≈ 0.0602 µM)	0.25 µg/mL (≈ 0.251 µM)	1 µg/mL (≈ 1 µM)
CC[C@H]1OC(=O)[C@H](C)[C@@H](O[C@H]2C[C@@](C)(OC)[C@@H](OC(=O)NCCCC(=O)NCCc3ccc(O)cc3)[C@H](C)O2)[C@H](C)[C@@H](O[C@@H]2O[C@H](C)C[C@H](N(C)C)[C@H]2O)[C@](C)(OC)C[C@@H](C)C(=O)[C@H](C)[C@@H](O)[C@]1(C)O	0.03 µg/mL (≈ 0.0301 µM)	0.25 µg/mL (≈ 0.251 µM)	0.5 µg/mL (≈ 0.502 µM)	1 µg/mL (≈ 1 µM)
CC[C@H]1OC(=O)[C@H](C)[C@@H](O[C@H]2C[C@@](C)(OC)[C@@H](OC(=O)NCCCC(=O)NCc3ccccc3)[C@H](C)O2)[C@H](C)[C@@H](O[C@@H]2O[C@H](C)C[C@H](N(C)C)[C@H]2O)[C@](C)(OC)C[C@@H](C)C(=O)[C@H](C)[C@@H](O)[C@]1(C)O	0.03 µg/mL (≈ 0.031 µM)	2 µg/mL (≈ 2.07 µM)	0.5 µg/mL (≈ 0.517 µM)	0.25 µg/mL (≈ 0.259 µM)
CC[C@H]1OC(=O)[C@H](C)[C@@H](O[C@H]2C[C@@](C)(OC)[C@@H](O)[C@H](C)O2)[C@H](C)[C@@H](O[C@@H]2O[C@H](C)C[C@H](N(C)C)[C@H]2O)[C@](C)(O)C[C@@H](C)CN(C)[C@H](C)[C@@H](O)[C@]1(C)O [AZITHROMYCIN]	0.03 µg/mL (≈ 0.0401 µM)	128 µg/mL (≈ 171 µM)	4 µg/mL (≈ 5.34 µM)	256 µg/mL (≈ 342 µM)
CC[C@H]1OC(=O)[C@H](C)[C@@H](O[C@H]2C[C@@](C)(OC)[C@@H](O)[C@H](C)O2)[C@H](C)[C@@H](O[C@@H]2O[C@H](C)C[C@H](N(C)C)[C@H]2O)[C@](C)(O)C[C@@H](C)C(=O)[C@H](C)[C@@H](O)[C@]1(C)O [ERYTHROMYCIN]	0.03 µg/mL (≈ 0.0409 µM)	128 µg/mL (≈ 174 µM)	8 µg/mL (≈ 10.9 µM)	256 µg/mL (≈ 349 µM)
CC[C@H]1OC(=O)[C@H](C)[C@@H](O[C@H]2C[C@@](C)(OC)[C@@H](OC(=O)NCCc3ccc4c(c3)OCO4)[C@H](C)O2)[C@H](C)[C@@H](O[C@@H]2O[C@H](C)C[C@H](N(C)C)[C@H]2O)[C@](C)(OC)C[C@@H](C)C(=O)[C@H](C)[C@@H](O)[C@]1(C)O	0.06 µg/mL (≈ 0.0639 µM)	32 µg/mL (≈ 34.1 µM)	0.25 µg/mL (≈ 0.266 µM)	64 µg/mL (≈ 68.1 µM)
CC[C@H]1OC(=O)[C@H](C)[C@@H](O[C@H]2C[C@@](C)(OC)[C@@H](OC(=O)NCCc3ccc(O)cc3)[C@H](C)O2)[C@H](C)[C@@H](O[C@@H]2O[C@H](C)C[C@H](N(C)C)[C@H]2O)[C@](C)(OC)C[C@@H](C)C(=O)[C@H](C)[C@@H](O)[C@]1(C)O	0.03 µg/mL (≈ 0.0329 µM)	16 µg/mL (≈ 17.6 µM)	1 µg/mL (≈ 1.1 µM)	64 µg/mL (≈ 70.2 µM)
CC[C@H]1OC(=O)[C@H](C)[C@@H](O[C@H]2C[C@@](C)(OC)[C@@H](O)[C@H](C)O2)[C@H](C)[C@@H](O[C@@H]2O[C@H](C)C[C@H](N(C)C)[C@H]2O)[C@](C)(OC)C[C@@H](C)C(=O)[C@H](C)[C@@H](O)[C@]1(C)O [CLARITHROMYCIN]	0.03 µg/mL (≈ 0.0401 µM)	64 µg/mL (≈ 85.6 µM)	4 µg/mL (≈ 5.35 µM)	128 µg/mL (≈ 171 µM)
CC[C@H]1OC(=O)[C@H](C)[C@@H](O[C@H]2C[C@@](C)(OC)[C@@H](OC(=O)NCc3ccc(OC)cc3)[C@H](C)O2)[C@H](C)[C@@H](O[C@@H]2O[C@H](C)C[C@H](N(C)C)[C@H]2O)[C@](C)(OC)C[C@@H](C)C(=O)[C@H](C)[C@@H](O)[C@]1(C)O	0.03 µg/mL (≈ 0.0329 µM)	16 µg/mL (≈ 17.6 µM)	0.25 µg/mL (≈ 0.274 µM)	32 µg/mL (≈ 35.1 µM)
CC[C@H]1OC(=O)[C@H](C)[C@@H](O[C@H]2C[C@@](C)(OC)[C@@H](OC(=O)NCc3ccccc3)[C@H](C)O2)[C@H](C)[C@@H](O[C@@H]2O[C@H](C)C[C@H](N(C)C)[C@H]2O)[C@](C)(OC)C[C@@H](C)C(=O)[C@H](C)[C@@H](O)[C@]1(C)O	0.25 µg/mL (≈ 0.284 µM)	4 µg/mL (≈ 4.54 µM)	0.25 µg/mL (≈ 0.284 µM)	8 µg/mL (≈ 9.08 µM)
CC[C@H]1OC(=O)[C@H](C)[C@@H](O[C@H]2C[C@@](C)(OC)[C@@H](OC(=O)NCCCC(=O)NCCc3ccccc3Cl)[C@H](C)O2)[C@H](C)[C@@H](O[C@@H]2O[C@H](C)C[C@H](N(C)C)[C@H]2O)[C@](C)(OC)C[C@@H](C)C(=O)[C@H](C)[C@@H](O)[C@]1(C)O	0.03 µg/mL (≈ 0.0296 µM)	32 µg/mL (≈ 31.5 µM)	1 µg/mL (≈ 0.986 µM)	32 µg/mL (≈ 31.5 µM)
CC[C@H]1OC(=O)[C@H](C)[C@@H](O[C@H]2C[C@@](C)(OC)[C@@H](OC(=O)NCc3ccc(F)cc3)[C@H](C)O2)[C@H](C)[C@@H](O[C@@H]2O[C@H](C)C[C@H](N(C)C)[C@H]2O)[C@](C)(OC)C[C@@H](C)C(=O)[C@H](C)[C@@H](O)[C@]1(C)O	0.06 µg/mL (≈ 0.0667 µM)	4 µg/mL (≈ 4.45 µM)	0.5 µg/mL (≈ 0.556 µM)	8 µg/mL (≈ 8.9 µM)
CC[C@H]1OC(=O)[C@H](C)[C@@H](O[C@H]2C[C@@](C)(OC)[C@@H](OC(=O)NCCCC(=O)NCc3ccc(F)cc3)[C@H](C)O2)[C@H](C)[C@@H](O[C@@H]2O[C@H](C)C[C@H](N(C)C)[C@H]2O)[C@](C)(OC)C[C@@H](C)C(=O)[C@H](C)[C@@H](O)[C@]1(C)O	0.03 µg/mL (≈ 0.0305 µM)	1 µg/mL (≈ 1.02 µM)	0.25 µg/mL (≈ 0.254 µM)	2 µg/mL (≈ 2.03 µM)
CC[C@H]1OC(=O)[C@H](C)[C@@H](O[C@H]2C[C@@](C)(OC)[C@@H](OC(=O)NCCc3ccccc3)[C@H](C)O2)[C@H](C)[C@@H](O[C@@H]2O[C@H](C)C[C@H](N(C)C)[C@H]2O)[C@](C)(OC)C[C@@H](C)C(=O)[C@H](C)[C@@H](O)[C@]1(C)O	0.06 µg/mL (≈ 0.067 µM)	16 µg/mL (≈ 17.9 µM)	0.5 µg/mL (≈ 0.559 µM)	32 µg/mL (≈ 35.7 µM)
CC[C@H]1OC(=O)[C@H](C)[C@@H](O[C@H]2C[C@@](C)(OC)[C@@H](OC(=O)NCCc3ccccc3Cl)[C@H](C)O2)[C@H](C)[C@@H](O[C@@H]2O[C@H](C)C[C@H](N(C)C)[C@H]2O)[C@](C)(OC)C[C@@H](C)C(=O)[C@H](C)[C@@H](O)[C@]1(C)O	0.12 µg/mL (≈ 0.129 µM)	128 µg/mL (≈ 138 µM)	4 µg/mL (≈ 4.3 µM)	128 µg/mL (≈ 138 µM)
